Drawing on patent US12516056B2, “Compounds for inhibition of janus kinase 1” (MANKIND PHARMA LTD., priority 2019, dated 2026), this text covers IC50 for 12 compounds.

Counter-ions that a name gives are not always drawn.

Experiment [1] concerns STAT5 phosphorylation by IL-2 in HT-2 cells. Description: STAT5 phosphorylation by IL-2 in HT-2 cells (HTRF). As to conditions: HT2, HT-2 cells, IL-2 50 U/ml, pSTAT5 HTRF; read-out: Cell Based Assay (μM) HT-2/IL-2/pSTAT5. It is filed as cell-based. As for the experimental part: HT-2 cells were starved […] in RPMI phenol red with 10% fetal bovine serum for 4 hours in CO2 incubator maintained at 37° c. Compounds were diluted in DMSO and added to 96 well plate containing a final density of 1,20,000 cells per well. Cells and compounds are incubated for 30 minutes in CO2 incubator maintained at 37° C. and final DMSO concentration in cell based assay was 0.2%. Human recombinant cytokine, IL-2 (50 U/ml) was added to the plate containing cells and compound and incubated for 20 minutes with gentle tapping/shaking at every 5 minutes once. Compound mediated effects on STAT5 phosphorylation was measured in the lysates prepared by using CISBIO pSTAT5 detection kit by HTRF method. Background signal obtained from cells which were not activated with cytokines, was subtracted from vehicle controls and compound treated wells.

In the next experiment the target is T1, Recombinant TYK2 (Homo sapiens, UniProt P29597).
T1 construct: purchased Carna Biosciences
Description: JAK biochemical assay (LANCE Ultra TR-FRET), TYK2. To be noted: recombinant TYK2, TR-FRET; read-out: Biochemical Assay (μM) TYK2. The method in brief:
(§1)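 TR-FRET read-out of ULight substrate phosphorylation by recombinant kinase gives % inhibition relative to vehicle. The assay buffer is HEPES pH 7.5 with EGTA, MgCl2, DTT and Tween-20.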

For a further experiment, the target named is T2, Recombinant JAK1 (Homo sapiens, UniProt P23458).
T2 construct: purchased Carna Biosciences
Description: JAK biochemical assay (LANCE Ultra TR-FRET), JAK1. To be noted: recombinant JAK1, TR-FRET; read-out: Biochemical Assay (μM) JAK1. The method in brief: as §1

In experiment [2] the test system is STAT3 phosphorylation by IL-6 in TF-1 cells. As to the kind of experiment: JAK cellular assay: STAT3 phosphorylation by IL-6 in TF-1 cells (HTRF). Type of experiment: cell-based. To be noted: Homo sapiens, TF-1, TF-1 cells, IL-6 30 ng/ml, pSTAT3 HTRF; read-out: Cell Based Assay (μM) TF-1/IL-6/pSTAT3. Put shortly:
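TF-1 cells starved overnight in low-serum OptiMEM, then 120,000/well in RPMI, preincubated with compound 30 min at 37 °C (0.2% DMSO final). Stimulation 20 min with IL-6 30 ng/ml (pSTAT3) or GMCSF 5 ng/ml (pSTAT5); lysate phospho-STAT by HTRF, unstimulated background subtracted.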

For the next experiment, the target named is T3, Recombinant JAK3 (Homo sapiens, UniProt P52333).
T3 construct: purchased Carna Biosciences
T3 sequence (P52333 1-1124): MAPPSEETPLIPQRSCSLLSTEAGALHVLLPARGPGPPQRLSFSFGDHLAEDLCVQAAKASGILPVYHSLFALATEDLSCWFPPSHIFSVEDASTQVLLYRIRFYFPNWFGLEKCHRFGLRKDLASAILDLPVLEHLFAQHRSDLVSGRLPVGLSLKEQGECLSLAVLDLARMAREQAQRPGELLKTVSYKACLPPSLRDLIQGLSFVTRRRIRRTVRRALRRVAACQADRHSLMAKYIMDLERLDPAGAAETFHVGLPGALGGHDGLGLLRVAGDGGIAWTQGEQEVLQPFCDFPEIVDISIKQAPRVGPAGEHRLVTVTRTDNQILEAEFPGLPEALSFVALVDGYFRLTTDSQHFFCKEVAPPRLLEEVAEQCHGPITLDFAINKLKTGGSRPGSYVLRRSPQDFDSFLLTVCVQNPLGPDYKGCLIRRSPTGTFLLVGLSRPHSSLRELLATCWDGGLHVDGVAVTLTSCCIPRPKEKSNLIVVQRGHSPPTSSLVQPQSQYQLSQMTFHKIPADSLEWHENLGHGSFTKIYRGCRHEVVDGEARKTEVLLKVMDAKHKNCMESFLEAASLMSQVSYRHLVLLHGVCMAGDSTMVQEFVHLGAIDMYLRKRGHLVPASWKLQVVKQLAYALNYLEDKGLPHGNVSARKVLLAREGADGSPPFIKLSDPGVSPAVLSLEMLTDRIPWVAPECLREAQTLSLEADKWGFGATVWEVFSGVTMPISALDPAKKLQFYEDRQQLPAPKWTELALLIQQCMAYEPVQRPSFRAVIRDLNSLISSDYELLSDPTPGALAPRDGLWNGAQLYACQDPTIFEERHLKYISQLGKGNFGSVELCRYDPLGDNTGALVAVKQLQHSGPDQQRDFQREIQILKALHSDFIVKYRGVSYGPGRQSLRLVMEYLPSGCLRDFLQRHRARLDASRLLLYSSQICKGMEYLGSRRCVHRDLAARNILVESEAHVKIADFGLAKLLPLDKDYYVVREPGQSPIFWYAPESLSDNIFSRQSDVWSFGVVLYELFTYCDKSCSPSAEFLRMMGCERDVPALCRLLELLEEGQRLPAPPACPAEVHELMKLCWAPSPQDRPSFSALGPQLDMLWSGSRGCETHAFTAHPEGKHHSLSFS
As to the kind of experiment: JAK biochemical assay (LANCE Ultra TR-FRET), JAK3. As to conditions: recombinant JAK3, TR-FRET; read-out: Biochemical Assay (μM) JAK3. The method in brief: as §1

Another experiment deals with T4, Recombinant JAK2 (Homo sapiens, UniProt O60674).
T4 construct: purchased Carna Biosciences
Description: JAK biochemical assay (LANCE Ultra TR-FRET), JAK2. To be noted: recombinant JAK2, TR-FRET; read-out: Biochemical Assay (μM) JAK2. The method in brief:
as §1

T1 sequence (P29597 whole entry): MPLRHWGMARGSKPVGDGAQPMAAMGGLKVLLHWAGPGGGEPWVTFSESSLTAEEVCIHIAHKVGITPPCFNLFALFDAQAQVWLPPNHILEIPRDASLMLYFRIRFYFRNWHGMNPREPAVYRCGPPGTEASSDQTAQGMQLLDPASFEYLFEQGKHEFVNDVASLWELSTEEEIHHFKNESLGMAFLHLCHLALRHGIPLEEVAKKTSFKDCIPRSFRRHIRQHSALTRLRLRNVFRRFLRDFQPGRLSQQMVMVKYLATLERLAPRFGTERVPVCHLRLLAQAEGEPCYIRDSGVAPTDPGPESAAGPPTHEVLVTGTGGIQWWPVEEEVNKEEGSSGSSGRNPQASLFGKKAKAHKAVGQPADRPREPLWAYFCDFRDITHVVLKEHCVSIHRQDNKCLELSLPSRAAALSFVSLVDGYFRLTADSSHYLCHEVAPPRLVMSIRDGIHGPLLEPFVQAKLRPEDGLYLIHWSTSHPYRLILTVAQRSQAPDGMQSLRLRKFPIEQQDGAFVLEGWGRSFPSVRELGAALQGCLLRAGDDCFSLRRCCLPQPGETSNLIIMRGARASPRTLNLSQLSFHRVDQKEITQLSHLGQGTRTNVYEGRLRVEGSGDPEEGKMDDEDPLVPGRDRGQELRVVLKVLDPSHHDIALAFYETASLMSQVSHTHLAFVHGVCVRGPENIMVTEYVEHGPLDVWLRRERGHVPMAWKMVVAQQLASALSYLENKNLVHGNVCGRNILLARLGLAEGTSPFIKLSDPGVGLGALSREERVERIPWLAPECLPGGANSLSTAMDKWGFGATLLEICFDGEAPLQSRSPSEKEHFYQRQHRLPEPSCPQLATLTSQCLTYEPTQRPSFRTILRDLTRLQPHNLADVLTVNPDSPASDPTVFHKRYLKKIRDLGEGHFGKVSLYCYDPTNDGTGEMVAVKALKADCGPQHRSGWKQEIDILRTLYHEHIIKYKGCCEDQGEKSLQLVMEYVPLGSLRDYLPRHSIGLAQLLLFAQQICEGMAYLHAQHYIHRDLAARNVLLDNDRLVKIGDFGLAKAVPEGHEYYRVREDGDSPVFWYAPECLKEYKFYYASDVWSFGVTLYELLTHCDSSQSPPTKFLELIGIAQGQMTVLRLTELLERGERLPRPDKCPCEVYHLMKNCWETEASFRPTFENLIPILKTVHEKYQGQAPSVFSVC
T2 sequence (P23458 whole entry): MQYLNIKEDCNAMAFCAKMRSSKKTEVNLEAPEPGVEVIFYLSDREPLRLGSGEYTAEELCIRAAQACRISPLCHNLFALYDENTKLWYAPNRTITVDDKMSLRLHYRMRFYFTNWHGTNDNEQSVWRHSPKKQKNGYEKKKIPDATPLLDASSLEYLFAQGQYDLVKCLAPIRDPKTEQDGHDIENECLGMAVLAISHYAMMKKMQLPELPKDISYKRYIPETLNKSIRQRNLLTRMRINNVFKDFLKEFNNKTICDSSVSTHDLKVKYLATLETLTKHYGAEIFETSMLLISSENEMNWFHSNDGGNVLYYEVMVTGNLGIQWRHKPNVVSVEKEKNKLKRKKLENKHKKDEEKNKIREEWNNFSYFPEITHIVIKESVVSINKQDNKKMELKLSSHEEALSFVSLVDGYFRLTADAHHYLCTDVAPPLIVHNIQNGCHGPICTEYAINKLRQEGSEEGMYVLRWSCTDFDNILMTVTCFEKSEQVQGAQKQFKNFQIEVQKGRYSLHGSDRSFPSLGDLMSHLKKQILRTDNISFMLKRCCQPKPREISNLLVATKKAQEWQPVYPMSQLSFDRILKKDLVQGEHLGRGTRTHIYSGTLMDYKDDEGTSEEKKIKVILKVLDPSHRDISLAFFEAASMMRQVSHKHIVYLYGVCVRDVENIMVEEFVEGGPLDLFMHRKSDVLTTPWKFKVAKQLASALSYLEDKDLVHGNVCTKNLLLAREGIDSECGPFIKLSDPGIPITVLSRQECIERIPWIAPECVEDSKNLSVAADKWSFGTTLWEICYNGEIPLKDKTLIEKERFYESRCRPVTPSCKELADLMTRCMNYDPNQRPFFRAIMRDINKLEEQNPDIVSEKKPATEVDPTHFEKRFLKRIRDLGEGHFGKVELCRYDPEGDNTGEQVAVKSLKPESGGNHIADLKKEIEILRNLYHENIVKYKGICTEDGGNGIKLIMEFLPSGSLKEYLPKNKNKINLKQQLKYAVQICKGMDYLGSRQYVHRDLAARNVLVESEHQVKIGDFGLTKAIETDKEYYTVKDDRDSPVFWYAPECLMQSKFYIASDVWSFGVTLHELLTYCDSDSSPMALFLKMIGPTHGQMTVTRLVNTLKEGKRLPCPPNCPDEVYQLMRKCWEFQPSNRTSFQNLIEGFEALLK
T4 sequence (O60674 whole entry): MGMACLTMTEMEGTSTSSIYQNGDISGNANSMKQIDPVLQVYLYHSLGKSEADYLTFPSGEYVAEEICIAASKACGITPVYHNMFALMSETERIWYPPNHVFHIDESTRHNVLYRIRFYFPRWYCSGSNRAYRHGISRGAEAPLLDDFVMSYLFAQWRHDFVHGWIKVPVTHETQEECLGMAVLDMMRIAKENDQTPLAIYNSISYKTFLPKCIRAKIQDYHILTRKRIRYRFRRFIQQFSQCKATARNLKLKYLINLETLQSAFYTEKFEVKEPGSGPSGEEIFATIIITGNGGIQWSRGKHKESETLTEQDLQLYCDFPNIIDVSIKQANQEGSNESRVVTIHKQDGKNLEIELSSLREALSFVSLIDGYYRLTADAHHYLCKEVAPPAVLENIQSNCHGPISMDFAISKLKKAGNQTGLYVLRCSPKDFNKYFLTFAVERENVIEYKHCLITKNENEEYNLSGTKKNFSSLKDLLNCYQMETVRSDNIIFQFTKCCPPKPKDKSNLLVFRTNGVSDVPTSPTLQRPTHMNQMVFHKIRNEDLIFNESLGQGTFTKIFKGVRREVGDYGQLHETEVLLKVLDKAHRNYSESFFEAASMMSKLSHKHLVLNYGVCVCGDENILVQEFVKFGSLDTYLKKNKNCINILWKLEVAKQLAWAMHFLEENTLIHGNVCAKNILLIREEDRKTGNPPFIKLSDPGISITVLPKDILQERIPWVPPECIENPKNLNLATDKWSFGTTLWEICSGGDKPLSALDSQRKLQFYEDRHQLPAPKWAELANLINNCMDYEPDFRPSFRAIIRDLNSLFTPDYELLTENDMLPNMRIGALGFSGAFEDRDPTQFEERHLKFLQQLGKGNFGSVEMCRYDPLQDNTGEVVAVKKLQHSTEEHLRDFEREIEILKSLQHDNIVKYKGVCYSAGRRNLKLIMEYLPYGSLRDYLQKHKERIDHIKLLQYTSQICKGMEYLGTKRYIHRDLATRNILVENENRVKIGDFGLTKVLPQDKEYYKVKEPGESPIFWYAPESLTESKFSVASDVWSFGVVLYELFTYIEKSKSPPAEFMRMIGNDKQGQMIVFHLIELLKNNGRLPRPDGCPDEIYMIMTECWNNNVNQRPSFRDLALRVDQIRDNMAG

As for `N#CC1CN(C(=O)CCC(c2ccc(-n3cc(-c4ccnc5[nH]cnc45)cn3)nc2)C(F)(F)F)C1` (stereo not drawn) [Example 1250, 1-(4-(6-(4-(3H-imidazo[4,5-b]pyridin-7-yl)-1H-pyrazol-1-yl)pyridin-3-yl)-5,5,5-trifluoropentanoyl)azetidine-3-carbonitrile], the IC50 in experiment [1] is more than 1 µM; on Recombinant TYK2 it was more than 1 µM; at Recombinant JAK1, less than 0.1 µM; in experiment [2] it was more than 1 µM; on Recombinant JAK3, less than 0.1 µM; on Recombinant JAK2, less than 0.1 µM.

Consider `CS(=O)(=O)CCC(c1ccc(-n2cc(-c3ccnc4[nH]cnc34)cn2)cc1)C(F)(F)F` (stereo not drawn) [Example 1190, 7-(1-(4-(1,1,1-trifluoro-4-(methylsulfonyl)butan-2-yl)phenyl)-1H-pyrazol-4-yl)-3H-imidazo[4,5-b]pyridine], for which the IC50 was 3.6 µM in experiment [1]; more than 1 µM at Recombinant TYK2; less than 0.1 µM at Recombinant JAK1; 1 µM in experiment [2]; less than 0.1 µM on Recombinant JAK3; less than 0.1 µM at Recombinant JAK2.

In the case of `N#CCC(=O)NC(c1ccc(-n2cc(-c3ccnc4[nH]cnc34)cn2)nc1)C(F)(F)F` (stereo not drawn) [Example 1192, N-(1-(6-(4-(3H-imidazo[4,5-b]pyridin-7-yl)-1H-pyrazol-1-yl)pyridin-3-yl)-2,2,2-trifluoroethyl)-2-cyanoacetamide], the IC50 in experiment [1] was more than 0.8 µM; on Recombinant TYK2, more than 1 µM; at Recombinant JAK1, less than 0.1 µM; in experiment [2], more than 0.8 µM; at Recombinant JAK3 it was less than 0.1 µM; on Recombinant JAK2, less than 0.1 µM.

Take `CC(C)N1CCC([C@@](O)(c2ccc(-n3cc(-c4ccnc5[nH]cnc45)cn3)cc2)C(F)(F)F)C1` (stereo partly drawn) [Example 1252, (R)-1-(4-(4-(3H-imidazo[4,5-b]pyridin-7-yl)-1H-pyrazol-1-yl)phenyl)-2,2,2-trifluoro-1-(1-isopropylpyrrolidin-3-yl)ethanol]: the IC50 in experiment [1] was 1.63 µM; on Recombinant TYK2, more than 0.5 µM; on Recombinant JAK1 it was less than 0.1 µM; in experiment [2], 1.1 µM; at Recombinant JAK3, less than 0.1 µM; at Recombinant JAK2, less than 0.1 µM.

Take `CNC(=O)CCC(c1ccc(-n2cc(-c3ccnc4[nH]cnc34)cn2)nc1)C(F)(F)F` (stereo not drawn) [Example 1148, 4-(6-(4-(3H-imidazo[4,5-b]pyridin-7-yl)-1H-pyrazol-1-yl)pyridin-3-yl)-5,5,5-trifluoro-N-methylpentanamide]: the IC50 in experiment [1] was more than 1 µM; at Recombinant TYK2 it was more than 1 µM; at Recombinant JAK1, less than 0.1 µM; in experiment [2] it was more than 0.5 µM; at Recombinant JAK3, less than 0.1 µM; at Recombinant JAK2 it was less than 0.1 µM.

Consider `O=C(NCCC(c1ccc(-n2cc(-c3ccnc4[nH]cnc34)cn2)nc1)C(F)(F)F)C1CC1` (stereo not drawn) [Example 1149, N-(3-(6-(4-(3H-imidazo[4,5-b]pyridin-7-yl)-1H-pyrazol-1-yl)pyridin-3-yl)-4,4,4-trifluorobutyl)cyclopropanecarboxamide], for which the IC50 in experiment [1] was more than 0.5 µM; at Recombinant TYK2 it was more than 1 µM; on Recombinant JAK1, less than 0.1 µM; in experiment [2], more than 0.5 µM; at Recombinant JAK3 it was less than 0.1 µM; at Recombinant JAK2, more than 0.1 µM.

As to `CNC(=O)C[C@@H](c1ccc(-n2cc(-c3ccnc4[nH]cnc34)cn2)nc1)C(F)(F)F` [Example 1214, (S)-3-(6-(4-(3H-imidazo[4,5-b]pyridin-7-yl)-1H-pyrazol-1-yl)pyridin-3-yl)-4,4,4-trifluoro-N-methylbutanamide], the IC50 is more than 1 µM in experiment [1]; more than 1 µM at Recombinant TYK2; less than 0.1 µM on Recombinant JAK1; more than 1 µM in experiment [2]; less than 0.1 µM at Recombinant JAK3; less than 0.5 µM at Recombinant JAK2.

For the compound `CNCC[C@@H](c1ccc(-n2cc(-c3ccnc4[nH]cnc34)cn2)nc1)C(F)(F)F` [Example 1217, (S)-3-(6-(4-(3H-imidazo[4,5-b]pyridin-7-yl)-1H-pyrazol-1-yl)pyridin-3-yl)-4,4,4-trifluoro-N-methylbutan-1-amine, TFA salt], the IC50 in experiment [1] was more than 0.5 µM; at Recombinant TYK2, 0.08 µM; on Recombinant JAK1, 0.0026 µM; in experiment [2], more than 0.1 µM; on Recombinant JAK3, 0.006 µM; on Recombinant JAK2, 0.007 µM.

As to `CNC(=O)C[C@H](c1ccc(-n2cc(-c3ccnc4[nH]cnc34)cn2)nc1)C(F)(F)F` [Example 1213, (R)-3-(6-(4-(3H-imidazo[4,5-b]pyridin-7-yl)-1H-pyrazol-1-yl)pyridin-3-yl)-4,4,4-trifluoro-N-methylbutanamide], the IC50 in experiment [1] was 0.7 µM; on Recombinant TYK2, more than 0.5 µM; on Recombinant JAK1, less than 0.1 µM; in experiment [2], 0.55 µM; on Recombinant JAK3, less than 0.1 µM; on Recombinant JAK2, less than 0.1 µM.

On to `CNC(=O)N1CC(C(O)(c2ccc(-n3cc(-c4ccnc5[nH]cnc45)cn3)nc2)C(F)(F)F)C1` (stereo not drawn) [Example 1246, 3-(1-(6-(4-(3H-imidazo[4,5-b]pyridin-7-yl)-1H-pyrazol-1-yl)pyridin-3-yl)-2,2,2-trifluoro-1-hydroxyethyl)-N-methylazetidine-1-carboxamide], for which the IC50 in experiment [1] came to 2 µM; at Recombinant TYK2, 0.79 µM; on Recombinant JAK1, 0.006 µM; in experiment [2] it was 1.5 µM; on Recombinant JAK3 it was 0.006 µM; on Recombinant JAK2 it was 0.034 µM.

Turning to `OC(CCN1CCOCC1)(c1ccc(-n2cc(-c3ccnc4[nH]cnc34)cn2)nc1)C(F)(F)F` (stereo not drawn) [Example 1230, 2-(6-(4-(3H-imidazo[4,5-b]pyridin-7-yl)-1H-pyrazol-1-yl)pyridin-3-yl)-1,1,1-trifluoro-4-morpholinobutan-2-ol], the IC50 in experiment [1] is more than 0.5 µM; on Recombinant TYK2 it was more than 0.5 µM; at Recombinant JAK1, less than 0.1 µM; in experiment [2], more than 0.5 µM; at Recombinant JAK3, less than 0.1 µM; at Recombinant JAK2, less than 0.1 µM.

Regarding `OC(CN1CCOCC1)(c1ccc(-n2cc(-c3ccnc4[nH]cnc34)cn2)nc1)C(F)(F)F` (stereo not drawn) [Example 1229, 2-(6-(4-(3H-imidazo[4,5-b]pyridin-7-yl)-1H-pyrazol-1-yl)pyridin-3-yl)-1,1,1-trifluoro-3-morpholinopropan-2-ol], the IC50 in experiment [1] is more than 1 µM; at Recombinant TYK2, more than 1 µM; on Recombinant JAK1, less than 0.1 µM; in experiment [2], more than 1 µM; on Recombinant JAK3, less than 0.1 µM; on Recombinant JAK2, less than 0.1 µM.
